From patent publication US8383637B2, “2-amino-quinazoline derivatives useful as inhibitors of β-secretase (BACE)” (Jansssen Pharmaceutica N.V., priority 2004, dated 2013)

Biological target: T1, β-secretase(BACE) (Homo sapiens, UniProt P56817)
T1 construct: purchased Panvera
Experiment: BACE FS1% Inhibition Assay
Type: biochemical
Settings: FS1 substrate; for % Inhibition (FS) 0.3 μM: 0.3 μM test compound; for % Inhibition (FS) 1 μM: 1 μM test compound; for % Inhibition (FS) 3 μM: 3 μM test compound
Description: BACE FS1% Inhibition Assay The following reagents were used in this assay: sodium acetate, PEG8000 (Sigma), DMSO, HEPES, FS1 substrate [[…]] […] The FS1-substrate stock solution was prepared in DMSO as a 10 mg/mL solution. The FS1-substrate working solution was prepared by diluting the 10 mg/mL stock solution with substrate assay buffer to a final concentration of 300 μg/mL. The β-secretase (BACE) working solution was prepared by diluting a 0.83 mg/mL BACE stock solution with enzyme assay buffer to a final concentration of 4 μg/mL. Test compounds were dissolved in DMSO to 10 mM. […] The screening procedure for this assay was as follows: 15 μL of BACE working solution was pipetted into each well of a 96-well plate. To each well was then pipetted 2 μL of test compound at the selected concentration. Test compound and BACE were then mixed with a pipettor and incubated for 20 min at room temperature. To each well was then added 10 μL of the FS1 substrate working solution. The plates were then incubated for 1 hour at room temperature. […] The procedure for the blank was as follows. 15 μL of assay buffer was pipetted into each well to be used as a blank control. To each well was then added 2 μL of vehicle and 10 μL of FS1-substrate working solution. The plates were then incubated for 1 hour at room temperature. […] The procedure for the positive control was as follows: 15 μL of BACE working solution was pipetted into each well to be used as a positive control. To each well was then pipetted 2 μL of vehicle. Vehicle and BACE were then mixed with a pipettor and incubated for 20 min at room temperature. To each well was then added 10 μL of the FS1 substrate working solution. The plates were then incubated for 1 hour at room temperature. […] For test compounds, % inhibition was determined at each concentration as follows: [formula]

T1 sequence (P56817 46-501): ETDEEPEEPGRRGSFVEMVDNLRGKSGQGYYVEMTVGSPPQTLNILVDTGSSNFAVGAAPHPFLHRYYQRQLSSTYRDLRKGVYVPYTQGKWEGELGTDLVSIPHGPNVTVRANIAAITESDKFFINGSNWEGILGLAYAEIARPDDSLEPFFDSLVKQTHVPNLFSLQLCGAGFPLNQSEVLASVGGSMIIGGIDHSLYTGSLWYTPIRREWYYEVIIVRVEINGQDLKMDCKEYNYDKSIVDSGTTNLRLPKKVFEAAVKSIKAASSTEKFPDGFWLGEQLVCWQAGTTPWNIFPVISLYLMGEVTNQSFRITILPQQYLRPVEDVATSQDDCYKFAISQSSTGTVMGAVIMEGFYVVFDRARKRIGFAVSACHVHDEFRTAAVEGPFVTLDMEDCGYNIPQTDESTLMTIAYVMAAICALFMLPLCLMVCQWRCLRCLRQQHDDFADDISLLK

SMILES | % Inhibition (FS) 0.3 μM [%] | % Inhibition (FS) 1 μM [%] | % Inhibition (FS) 3 μM [%]
NC1=Nc2ccc(Oc3ccccc3)cc2CN1CCNC(=O)c1ccc(-c2ccccc2)cc1 [Compound 195] | <30 | <30 | <30
CCCN(CC1CC1)C(=O)c1cccc(CN2Cc3cc(Oc4ccccc4)ccc3N=C2N)c1 [Compound 197] | <30 | <30 | 32
CCCCC(CC)CN(CC(CC)CCCC)C(=O)c1cccc(CN2Cc3cc(Oc4ccccc4)ccc3N=C2N)c1 (stereo not drawn) [Compound 198] | <30 | <30 | <30
CN(C(=O)CC(C1CCCCC1)N1Cc2cc(Oc3ccccc3)ccc2N=C1N)C1CCCCC1 (stereo not drawn) [Compound 199] | <30 | <30 | 82
CC(C)N(C(=O)CC(C1CCCCC1)N1Cc2cc(Oc3ccccc3)ccc2N=C1N)C1CCCCC1 (stereo not drawn) [Compound 200] | <30 | <30 | <30
CC(C)C(CC(=O)N(C(C)C)C1CCCCC1)N1Cc2cc(Oc3ccccc3)ccc2N=C1N (stereo not drawn) [Compound 202] | <30 | <30 | <30
NC1=Nc2ccc(Oc3ccccc3)cc2CN1CCNC(=O)C(c1ccccc1)c1ccccc1 [Compound 207] | 48 | 90 | 108
CCCCCCCCC(CCC(=O)NC1CCCCCC1)N1Cc2cc(Oc3ccccc3)ccc2N=C1N (stereo not drawn) [Compound 208] | <30 | <30 | 67
CCCCCCCCC(CCC(=O)N(C)C1CCCCC1)N1Cc2cc(Oc3ccccc3)ccc2N=C1N (stereo not drawn) [Compound 210] | <30 | <30 | <30
NC1=Nc2ccc(Oc3ccccc3)cc2CN1Cc1cccc(C(=O)N2CCCC3CCCCC32)c1 (stereo not drawn) [Compound 212] | <30 | <30 | 32
CC1CCC(NC(=O)c2cccc(CN3Cc4cc(Oc5ccccc5)ccc4N=C3N)c2)CC1 (stereo not drawn) [Compound 213] | <30 | <30 | <30
COc1cccc(C(=O)NCCN2Cc3cc(Oc4ccccc4)ccc3N=C2N)c1 [Compound 217] | <30 | <30 | 56
CN1CCCC1CCNC(=O)c1cccc(CN2Cc3cc(Oc4ccccc4)ccc3N=C2N)c1 (stereo not drawn) [Compound 222] | <30 | <30 | <30
CN1CCC(N(C)C(=O)c2cccc(CN3Cc4cc(Oc5ccccc5)ccc4N=C3N)c2)CC1 [Compound 223] | <30 | <30 | <30
CC(C)(C)OC(=O)Nc1cccc(CN2Cc3cc(Oc4ccccc4)ccc3N=C2N)c1 [Compound 224] | <30 | <30 | <30
Cc1cc(C)cc(Oc2ccc3c(c2)CN(Cc2cccc(C(=O)N(C)C4CCCCC4)c2)C(N)=N3)c1 [Compound 228] | <30 | 49 | 40
CC(=O)Nc1cccc(Oc2ccc3c(c2)CN(Cc2cccc(C(=O)N(C)C4CCCCC4)c2)C(N)=N3)c1 [Compound 229] | <30 | 35 | <30
CN(C(=O)c1cccc(CN2Cc3cc(Oc4cccnc4)ccc3N=C2N)c1)C1CCCCC1 [Compound 230] | <30 | 33 | <30
COc1ccccc1Oc1ccc2c(c1)CN(Cc1cccc(C(=O)N(C)C3CCCCC3)c1)C(N)=N2 [Compound 232] | <30 | <30 | 31
CN(C(=O)c1cccc(CN2Cc3cc(Oc4ccc5c(c4)CCCC5)ccc3N=C2N)c1)C1CCCCC1 [Compound 233] | <30 | 32 | 36
CN(C(=O)c1cccc(CN2Cc3cc(Oc4ccccc4-c4ccccc4)ccc3N=C2N)c1)C1CCCCC1 [Compound 234] | <30 | 57 | 43

SMILES | % Inhibition (FS) 0.3 μM [%] | % Inhibition (FS) 1 μM [%] | % Inhibition (FS) 3 μM [%]
CN(C(=O)c1cccc(CN2Cc3cc(Oc4ccccc4CC(N)=O)ccc3N=C2N)c1)C1CCCCC1 [Compound 235] | <30 | 46 | <30
CN(C(=O)c1cccc(CN2Cc3cc(Oc4cccc(Oc5ccccc5)c4)ccc3N=C2N)c1)C1CCCCC1 [Compound 236] | <30 | 37 | 49
CC(C)(C)OC(=O)NCC(C1CCCCC1)N1Cc2cc(Oc3ccccc3)ccc2N=C1N (stereo not drawn) [Compound 257] | 67 | 105 | 111
CN(C(=O)c1cccc(CN2Cc3cc(C=Cc4ccccc4)ccc3N=C2N)c1)C1CCCCC1 [Compound 266] | <30 | 34 | <30
CN(C(=O)c1cccc(CN2Cc3cc(-c4ccc(C5CCCCC5)cc4)ccc3N=C2N)c1)C1CCCCC1 [Compound 267] | <30 | 39 | 38
NC1=Nc2ccc(Oc3ccccc3)cc2CN1Cc1cccc(NC(=O)C2CCCCC2)c1 [Compound 286] | <30 | <30 | 36
CC(C)(C)C(=O)Nc1cccc(CN2Cc3cc(Oc4ccccc4)ccc3N=C2N)c1 [Compound 290] | <30 | <30 | <30
NC1=Nc2ccc(Oc3ccccc3)cc2CN1C(CNC(=O)C1CCCC1)C1CCCCC1 (stereo not drawn) [Compound 295] | 79 | 106 | 116
NC1=Nc2ccc(Oc3ccccc3)cc2CN1C(CC(=O)NC1CCCCC1)c1ccccc1 (stereo not drawn) [Compound 299] | <30 | <30 | <30
NC1=Nc2ccc(Oc3ccccc3)cc2CN1C(CC(=O)NC1CCCCC1)C1CCCCC1 (stereo not drawn) [Compound 300] | <30 | <30 | 77
NC1=Nc2ccc(Oc3ccccc3)cc2CN1Cc1cccc(CNC(=O)C2CCCCC2)c1 [Compound 306] | <30 | <30 | 46
NC1=Nc2ccc(Oc3ccccc3)cc2CN1Cc1cccc(CNC(=O)C(F)(F)F)c1 [Compound 307] | <30 | <30 | <30
CN(C(=O)c1cccc(C(CC2CCCCC2)N2Cc3cc(Oc4ccccc4)ccc3N=C2N)c1)C1CCCCC1 (stereo not drawn) [Compound 310] | <30 | <30 | 57
NC1=Nc2ccc(Oc3ccccc3)cc2CN1C(CNC(=O)C12CC3CC(CC(C3)C1)C2)C1CCCCC1 (stereo not drawn) [Compound 312] | 74 | 103 | 115
CC(C)c1ccccc1Oc1ccc2c(c1)CN(C(CC(=O)NC1CCCCC1)C1CCCCC1)C(N)=N2 (stereo not drawn) [Compound 313] | <30 | <30 | 31
NC1=Nc2ccc(Oc3ccccc3)cc2CN1C(CC(=O)NC1C2CC3CC(C2)CC1C3)C1CCCCC1 (stereo not drawn) [Compound 314] | <30 | 45 | 85
CC(C)(C)OC(=O)NCc1cccc(CN2Cc3cc(Oc4ccccc4)ccc3N=C2N)c1 [Compound 315] | <30 | <30 | 33
CN1CCC(N(C)C(=O)c2cccc(C(c3ccccc3)N3Cc4cc(Oc5ccccc5)ccc4N=C3N)c2)CC1 (stereo not drawn) [Compound 316] | <30 | <30 | <30
CCc1ccccc1-c1ccc2c(c1)CN(Cc1cccc(C(=O)N(C)C3CCCCC3)c1)C(N)=N2 [Compound 320] | −31 | <30 | <30
CN(C(=O)c1cccc(CN2Cc3cc(-c4ccccc4-c4ccccc4)ccc3N=C2N)c1)C1CCCCC1 [Compound 321] | −33 | <30 | <30
